Assay results reported in patent publication US8263060B2, “Fast degrading polymers” (Rutgers, The State University of New Jersey, priority 2005, dated 2012).
Values after ≈ are worked out from the molar mass of the structure shown.

Assay: Solubility in PBS degradation media
Assay type: physicochemical
Conditions: aqueous buffer

For `COc1cc(C(=O)O)cc(OC)c1O` [syringic acid], the solubility was 56 mg/mL (≈ 283 mM).
